From patent US4434096A, “Substrates for the quantitative determination of proteolytic enzymes” (E. I. Du Pont de Nemours and Company, priority 1981, dated 1984)
Square brackets hold non-standard residues; d marks the D form. Peptide text beside a SMILES is read from it. * marks the point of attachment. SBn = c1ccc(CS*)cc1

Target: human α-thrombin (Homo sapiens, UniProt P00734)
Assay: Kinetics of substrate hydrolysis by proteolytic enzyme (initial rates, centrifugal analyzer, Hanes plot)
Format: biochemical
Conditions: substrate for human α-thrombin
Description: The Michaelis-Menten constant, Km, is a kinetic parameter related to the affinity of a substrate for an enzyme under a given set of reaction conditions. The Km is defined as the substrate concentration at which the initial reaction velocity is one-half of the maximal initial reaction velocity. The maximal velocity (vmax), another important kinetic parameter, when divided by the enzyme concentration, yields kcat. The determination of Km and kcat for a given substrate with various enzymes allows the determination of the selectivity of that substrate for a given enzyme.
Km and vmax values can be determined by utilizing a centrifugal analyzer (GEMSAEC system, available from Electro-Nucleonics, Inc., Fairfield, N.J.) to measure the initial rates of substrate hydrolysis by the proteolytic enzyme. Five substrate concentrations ([S]), ranging from about one-fifth to five times the expected Km, can be used for triplicate determinations in this centrifugal analyzer. The initial reaction rates (v) can then be plotted in a Hanes plot, [S]/v versus [S], for a determination of Km (the absolute value of the X-intercept) and vmax (the reciprocal of the slope) through linear regression analysis. Alternative procedures are available for the calculation of Km and vmax.
For a given enzyme, lower Km values for a series of substrates indicate higher affinity of the substrate to the enzyme. This allows the utilization of lesser amounts of substrate while still operating at vmax.

Compound	Km [µM]	kcat [s⁻¹]
CC(C)C[C@H](NC(=O)[C@H](N)C(C)C)C(=O)N[C@@H](CCCCN)C(=O)SCc1ccccc1 [H--D-Val--Leu--Lys--S--Bzl] (H-[dV]-Leu-Lys-SBn)	16	94
NCCCC[C@H](NC(=O)OCc1ccccc1)C(=O)SCc1ccccc1 [Z--Lys--S--Bzl]	38	84
